Here are results for 2 molecules from patent publication US20100184852A1, “ORGANIC COMPOUNDS FOR TREATMENT OF DISORDERS CONNECTED TO IMPAIRED NEUROTRANSMISSION” (priority 2006, published 2010).

For assay [1], the target named is T1, human serotonin re-uptake transporter (hSERT) (Homo sapiens, UniProt P31645).
T1 construct: host or cells: HEK-293
The assay can be described thus: Serotonin uptake inhibition in HEK-293 cells expressing hSERT. The class given is cell-based. As to conditions: transfected HEK-293 cells; 20 nM (3H) serotonin, 30 minutes; average +/− s.e.m.; read-out: IC50 for tritiated serotonin uptake. On the procedure: HEK-293 cells stably expressing the human serotonin re-uptake transporter (hSERT) were obtained from R. Blakely, Vanderbilt University, USA. The cells were routinely grown in Dulbeco's Modified Eagles Medium, purchased from Bioconcept, Allschwil, Switzerland containing 10% fetal calf serum, penicillin, streptomycin, L-glutamine and the antibiotic G418 and passaged by trypsinisation. One day prior to the assay cells were seeded in the above mentioned medium. Immediately prior to the assay the medium was replaced by Krebs Ringers bicarbonate buffer, purchased from Sigma Chemicals Ltd., supplemented with 35 μM pargyline, 2.2 mM CaCl2, 1 mM ascorbic acid and 5 mM N-2-hydroxyethylpiperazine-N′-2-ethanesulfonic acid (buffer called “Hepes”). Serotonin uptake into the cells was determined by addition of radio-labeled (3H) serotonin (Amersham Biosciences GE Healthcare, Slough, UK) to a concentration of 20 nM, and incubation for 30 minutes at room temperature. Following removal of unincorporated label by gentle washing three times with the above buffer, incorporated serotonin was quantified by liquid scintillation counting.
The effect of the compounds of formula I on the serotonin uptake was determined by its inclusion in the assay at a range of concentrations between 0.03 and 100 μM for 10 minutes prior to and during the addition of (3H) serotonin/citalopram. Serotonin uptake via the transporter was inhibited by ligustilide, 3-butylphthalide, senkyunolide A, senkyunolide C, senkyunolide B, and cnidilide, respectively, in a dose dependent manner, with IC50 values as shown in Table 2.

Assay [2] has as its target T2, Human recombinant norepinephrine transporter (Homo sapiens, UniProt P23975).
T2 construct: expressed in transfected cells; host or cells: dog kidney MDCK cells
The assay can be described thus: Norepinephrine uptake inhibition in MDCK cells. The settings on record: 25 nM [3H]Norepinephrine, 10 minutes. The class given is cell-based. The procedure: Human recombinant norepinephrine transporter stably expressed dog kidney MDCK cells are plated one day before the assay. […] Cells in the well were then rinsed twice, solubilized with 1% SDS lysis buffer and the lysate was counted to determine [^3H]Norepinephrine uptake. Specific signal was determined in the presence of 10 μM desipramine. Reduction of [^3H]Norepinephrine uptake by 50 percent or more (≧50%) relative to vehicle controls indicates significant inhibitory activity. Compounds were screened at 10, 1, 0.1, 0.01 and 0.001 μM.

For assay [3], the system named is mice. The assay can be described thus: Elevated plus maze test. The format is in vivo, mouse. The settings on record: for OPEN ARM Number of entries, Mean ± sem / OPEN ARM Time spent (s), Mean ± sem: 5 h and 1 h before test; for OPEN ARM Number of entries, % change / OPEN ARM Time spent, % change: versus vehicle. An excerpt:
The method, which detects anxiolytic activity, follows that described by Handley et al, 1984 (Naunyn-Schm Arch Pharm 387: 1-5. Rodents avoid open spaces (the open arms of an elevated plus-maze). Anxiolytics increase exploratory activity in the […].
The maze consists of 4 arms of equal length and width (14×5 cm) arranged in the form of a plus sign (+). Two opposite arms are enclosed by 12 cm high walls (closed arms). The 2 other arms have no walls (open arms). The maze is raised 56 cm above the floor. A mouse is placed in the centre of the plus-maze and left to explore for 5 minutes. The number of entries into the open and closed arms and the time spent in the open arms is recorded. 10 mice were studied per group. The test was performed blind.
3-n-Butylphthalide was tested at doses of 10, 30, and 80 mg/kg body weight.

For assay [4], the target named is T3, Monoamine oxidase A (MAO-A) (Homo sapiens, UniProt P21397).
T3 sequence (P21397 1-527): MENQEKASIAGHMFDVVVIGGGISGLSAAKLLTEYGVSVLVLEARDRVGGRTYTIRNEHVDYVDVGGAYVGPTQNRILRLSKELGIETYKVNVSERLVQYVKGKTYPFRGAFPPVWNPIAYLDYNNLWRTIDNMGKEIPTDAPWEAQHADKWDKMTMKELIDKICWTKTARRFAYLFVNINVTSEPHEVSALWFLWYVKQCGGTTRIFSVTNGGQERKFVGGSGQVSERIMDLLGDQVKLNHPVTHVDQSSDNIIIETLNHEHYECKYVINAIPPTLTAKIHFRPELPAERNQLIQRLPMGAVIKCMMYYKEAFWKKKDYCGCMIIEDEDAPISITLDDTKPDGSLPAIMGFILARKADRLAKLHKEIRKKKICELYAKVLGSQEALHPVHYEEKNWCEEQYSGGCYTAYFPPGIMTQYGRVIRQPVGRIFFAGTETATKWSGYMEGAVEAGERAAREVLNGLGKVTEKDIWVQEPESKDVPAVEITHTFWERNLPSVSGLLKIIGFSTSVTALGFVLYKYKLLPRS
The assay is described as follows: Monoaminooxidase A inhibition (H2O2/vanillic acid/HRP readout). The class given is biochemical. On the procedure: The organic amines p-tyramine or benzylamine were used as substrates for the Monoamine oxidase A (MAO-A) and B (MAO-B) enzymes respectively. The H2O2 produced by this reaction was quantified by reaction with vanillic acid, catalysed by horse radish peroxidase (HRP).
The reactions were carried out in polystyrene microtitre plates. The MAO enzymes (final concentration 2 U/ml) were mixed with either p-tyramine (Sigma, final concentration 0.5 mM) or benzylamine (Sigma, final concentration 0.5 mM) as appropriate and the chromogenic solution (containing vanillic acid (Fluka), 4-aminoantipyrine (Fluka) and horse radish peroxidase (Sigma), final concentrations 0.25 mM, 0.125 mM and 1 U/ml respectively) in 0.2 M potassium phosphate buffer pH 7.6. The reactions were followed in a microtitre plate absorbance reader eg Spectramax M5 (Molecular Devices Corporation). Absorbance readings at 495 nm were taken every 15 seconds for 40 minutes and the initial reaction velocities calculated by linear regression using SOFTmaxPro (Molecular Devices Corporation).
The effect of ligustilide, 3-butylphthalide, senkyunolide C and cnidilide on the monoamine oxidase enzymes was determined by their inclusion in the assay at a range of concentrations between 0.03 and 100 μM for 10 minutes prior to and during the incubation with substrate. To determine the effect of the compounds on the HRP catalyzed portion of the reaction, the MAO enzyme was replaced by H2O2 (Molecular Probes, final concentration 0.2 mM). The reactions containing MAO-A and MAO-B were both inhibited by […] according to formula I in a dose dependent manner, whilst the control reaction, was unaffected. The measured IC50 values for inhibition of monoamine oxidase activity by ligustilide, 3-butylphthalide, senkyunolide C and enidilide, respectively, are shown in Table 3.

A word on the IC50: it is the concentration that gives 50% inhibition.

T1 sequence (P31645 whole entry): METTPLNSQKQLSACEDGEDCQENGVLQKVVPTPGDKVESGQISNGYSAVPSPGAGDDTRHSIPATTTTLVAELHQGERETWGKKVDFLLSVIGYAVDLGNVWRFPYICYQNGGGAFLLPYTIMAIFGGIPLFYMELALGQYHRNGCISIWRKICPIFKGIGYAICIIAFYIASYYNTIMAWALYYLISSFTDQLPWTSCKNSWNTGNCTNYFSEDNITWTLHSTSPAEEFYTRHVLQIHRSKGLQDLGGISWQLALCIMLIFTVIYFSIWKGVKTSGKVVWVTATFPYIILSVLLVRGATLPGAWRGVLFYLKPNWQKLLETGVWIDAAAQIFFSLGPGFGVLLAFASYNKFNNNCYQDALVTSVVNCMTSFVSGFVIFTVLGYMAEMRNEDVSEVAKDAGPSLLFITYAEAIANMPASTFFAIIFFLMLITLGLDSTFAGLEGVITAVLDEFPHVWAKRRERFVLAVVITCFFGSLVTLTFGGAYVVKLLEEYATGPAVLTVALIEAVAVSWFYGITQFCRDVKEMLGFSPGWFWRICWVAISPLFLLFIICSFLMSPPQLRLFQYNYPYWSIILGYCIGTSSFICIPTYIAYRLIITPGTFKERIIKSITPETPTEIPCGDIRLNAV
T2 sequence (P23975 whole entry): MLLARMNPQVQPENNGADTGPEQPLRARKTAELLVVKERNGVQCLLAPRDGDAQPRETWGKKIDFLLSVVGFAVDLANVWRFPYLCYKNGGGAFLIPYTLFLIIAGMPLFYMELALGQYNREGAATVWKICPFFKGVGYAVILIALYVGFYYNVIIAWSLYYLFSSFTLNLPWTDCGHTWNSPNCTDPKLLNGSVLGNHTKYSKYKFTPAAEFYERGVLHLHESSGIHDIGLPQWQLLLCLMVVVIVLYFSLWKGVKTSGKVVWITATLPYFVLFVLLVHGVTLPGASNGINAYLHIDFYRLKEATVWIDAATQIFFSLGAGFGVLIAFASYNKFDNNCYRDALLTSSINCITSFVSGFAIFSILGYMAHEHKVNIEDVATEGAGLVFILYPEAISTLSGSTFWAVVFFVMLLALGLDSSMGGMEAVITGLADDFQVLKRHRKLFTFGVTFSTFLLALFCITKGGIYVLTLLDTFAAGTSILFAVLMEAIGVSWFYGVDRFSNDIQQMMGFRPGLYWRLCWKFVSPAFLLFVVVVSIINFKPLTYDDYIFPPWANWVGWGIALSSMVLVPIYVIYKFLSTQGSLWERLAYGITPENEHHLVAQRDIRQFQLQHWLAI

In the case of `CCCC[C@@H]1OC(=O)c2ccccc21` (stereo in doubt) [3-n-butylphthalide, 3-n-Butylphthalide], the half-inhibitory concentration (IC50) came out at 35.2 µM in assay [1], 23.7 µM in assay [2] and 8.1 µM in assay [4]. Also, the figures for the “OPEN ARM Number of entries, Mean ± sem” value in assay [3] (10 mg/kg p.o. −24 h), in assay [3] (30 mg/kg p.o. −24 h) and in assay [3] (80 mg/kg p.o. −24 h) were 3.5 ± 0.7, 3.1 ± 0.5 and 3.0 ± 0.8, respectively. Moreover, the entries for the “OPEN ARM Time spent (s), Mean ± sem” value in assay [3] (10 mg/kg p.o. −24 h), in assay [3] (30 mg/kg p.o. −24 h) and in assay [3] (80 mg/kg p.o. −24 h) were 24.3 ± 4.6 s, 23.0 ± 3.8 s and 26.4 ± 5.3 s, respectively. For the same molecule, the “OPEN ARM Number of entries, % change” value is listed as “+46%” in assay [3] (10 mg/kg p.o.), “+29%” in assay [3] (30 mg/kg p.o.) and “+25%” in assay [3] (80 mg/kg p.o.). In addition, the “OPEN ARM Time spent, % change” value is recorded as “+34%” in assay [3] (10 mg/kg p.o.), “+26%” in assay [3] (30 mg/kg p.o.) and “+45%” in assay [3] (80 mg/kg p.o.). Further, the anxiolytic activity entry in assay [3] (10, 30 and 80 mg/kg) is on record as “moderate anxiolytic activity”. Also, the “entries into the closed arm” value in assay [3] (10, 30 and 80 mg/kg) is given as “no effect”. For the same molecule, the “number of entries and time spent in the open arm (overall)” value in assay [3] (10, 30 and 80 mg/kg) was “trend to moderately increase”.

Take `CCC/C=C1\OC(=O)C2=C1CCC=C2` [Ligustilide]: the IC50 in assay [1] is 20.4 µM; in assay [4], 15.7 µM.
